The assay addresses T1, ACE2 (angiotensin-converting enzyme 2) (Homo sapiens, UniProt Q9BYF1).
T1 construct: recombinant human ACE2, His-tag and Strep-tag, from Sf9 insect cells
As to the kind of experiment: SPR (Biacore T200, immobilized ACE2, […] kinetic model). Type of assay: binding.

SMILES strings stand for the structures.

T1 sequence (Q9BYF1 18-805): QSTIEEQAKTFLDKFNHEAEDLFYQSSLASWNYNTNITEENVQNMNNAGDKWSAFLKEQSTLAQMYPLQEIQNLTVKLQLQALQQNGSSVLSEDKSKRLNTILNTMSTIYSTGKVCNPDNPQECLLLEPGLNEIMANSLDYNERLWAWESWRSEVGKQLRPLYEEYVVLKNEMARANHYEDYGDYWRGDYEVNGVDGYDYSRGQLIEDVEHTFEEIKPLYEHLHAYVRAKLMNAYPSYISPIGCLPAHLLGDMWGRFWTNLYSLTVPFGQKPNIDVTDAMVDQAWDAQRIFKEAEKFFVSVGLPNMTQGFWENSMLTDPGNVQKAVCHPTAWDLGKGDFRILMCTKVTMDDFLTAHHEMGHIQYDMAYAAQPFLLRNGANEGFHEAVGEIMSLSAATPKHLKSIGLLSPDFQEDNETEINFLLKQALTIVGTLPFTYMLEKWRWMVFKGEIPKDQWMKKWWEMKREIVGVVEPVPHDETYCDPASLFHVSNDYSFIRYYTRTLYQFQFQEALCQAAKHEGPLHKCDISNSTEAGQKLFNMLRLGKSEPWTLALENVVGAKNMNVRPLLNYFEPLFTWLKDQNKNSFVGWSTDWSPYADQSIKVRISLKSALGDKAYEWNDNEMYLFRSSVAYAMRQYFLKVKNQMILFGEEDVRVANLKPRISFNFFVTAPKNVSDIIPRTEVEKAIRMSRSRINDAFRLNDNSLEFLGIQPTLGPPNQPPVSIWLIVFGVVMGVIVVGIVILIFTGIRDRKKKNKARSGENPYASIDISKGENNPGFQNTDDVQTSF

Turning to `CCCCc1nc(Cl)c(CO)n1Cc1ccc(-c2ccccc2-c2nn[nH]n2)cc1` [losartan], the affinity, expressed as Kd, was 13.7 nM.

The values are drawn from PMC10179460, “Computational and Enzymatic Studies of Sartans in SARS-CoV-2 Spike RBD-ACE2 Binding: The Role of Tetrazole and Perspectives as Antihypertensive and COVID-19 Therapeutics” (International Journal of Molecular Sciences, 2023).
